One assay concerns the target T1, PACAP-R3 (Homo sapiens, UniProt P41587).
T1 sequence (P41587 24-438): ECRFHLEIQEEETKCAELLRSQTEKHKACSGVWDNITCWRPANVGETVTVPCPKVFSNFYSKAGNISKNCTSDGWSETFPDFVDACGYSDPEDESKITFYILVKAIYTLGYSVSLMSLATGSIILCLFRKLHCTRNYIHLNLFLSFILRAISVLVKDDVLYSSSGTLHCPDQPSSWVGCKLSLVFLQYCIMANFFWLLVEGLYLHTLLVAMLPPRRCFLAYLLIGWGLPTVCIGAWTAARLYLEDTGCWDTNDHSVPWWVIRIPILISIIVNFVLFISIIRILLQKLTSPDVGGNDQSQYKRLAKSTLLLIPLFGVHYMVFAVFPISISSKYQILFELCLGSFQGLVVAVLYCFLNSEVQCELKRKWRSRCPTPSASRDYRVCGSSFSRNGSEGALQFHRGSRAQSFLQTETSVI
Put plainly: Cyclic AMP SPA on CHO cells expressing PACAP R3. The class given is cell-based. Also noted: expressed in transfected cells; host or cells: CHO cells (Geneticin selection). Conditions: for pEC50: cAMP SPA, CHO cells transfected with PACAP-R3, concentration at which 50% of maximum PACAP27 activity is achieved, NA = no detectable activities, read-out: R3 EC50; for R3 Selectivity: ratio of EC50 at R2 versus EC50 at R3. In outline: (§1)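 Intracellular cAMP, quantified by scintillation proximity assay, was measured after a 15-min, 37 °C peptide incubation containing IBMX (100 μM), bacitracin and soybean trypsin inhibitor. The cells were CHO transfected with PACAP-R2 or -R3. EC50 is set against maximal PACAP27 response.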

Another assay has as its target T2, PACAP-R2 (Homo sapiens, UniProt P32241).
T2 construct: expressed in transfected cells; host or cells: CHO cells
T2 sequence (P32241 31-457): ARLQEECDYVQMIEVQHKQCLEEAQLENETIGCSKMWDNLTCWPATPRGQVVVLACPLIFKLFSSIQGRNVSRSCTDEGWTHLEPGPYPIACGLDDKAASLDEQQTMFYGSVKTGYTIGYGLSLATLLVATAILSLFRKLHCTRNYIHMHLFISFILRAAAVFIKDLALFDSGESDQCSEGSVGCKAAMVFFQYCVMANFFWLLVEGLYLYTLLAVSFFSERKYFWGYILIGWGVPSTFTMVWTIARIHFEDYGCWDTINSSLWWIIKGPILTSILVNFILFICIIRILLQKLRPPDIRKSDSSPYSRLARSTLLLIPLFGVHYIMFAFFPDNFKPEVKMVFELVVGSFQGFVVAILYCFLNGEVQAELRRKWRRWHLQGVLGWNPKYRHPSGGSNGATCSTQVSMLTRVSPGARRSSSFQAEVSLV
As to the kind of experiment: Cyclic AMP SPA on CHO cells transfected with PACAP-R2. The class given is cell-based. The settings on record: cAMP SPA, concentration at which 50% of maximum PACAP27 activity is achieved, NA = no detectable activities, read-out: R2 EC50. In outline: as §1

pEC50: −log10 of the molar value. No end group written: not given here.

These results are taken from US6972319B1, “Pituitary adenylate cyclase activating peptide (PACAP)receptor 3 (R3) agonists and their pharmacological methods of use” (priority 1999, dated 2005).

The pEC50 is −log10 of the EC50, conventionally taken in molar units.

On to `CC[C@H](C)[C@H](NC(=O)[C@H](CO)NC(=O)[C@H](CC(N)=O)NC(=O)[C@H](CC(C)C)NC(=O)[C@H](Cc1ccc(O)cc1)NC(=O)[C@H](CCCCN)NC(=O)[C@H](CCCCN)NC(=O)[C@@H](NC(=O)[C@H](C)NC(=O)[C@H](CCSC)NC(=O)[C@H](CCC(N)=O)NC(=O)[C@H](CCCCN)NC(=O)[C@H](CCCNC(=N)N)NC(=O)[C@H](CC(C)C)NC(=O)[C@H](CCCNC(=N)N)NC(=O)[C@@H](NC(=O)[C@H](Cc1ccc(O)cc1)NC(=O)[C@H](CC(N)=O)NC(=O)[C@H](CC(=O)O)NC(=O)[C@@H](NC(=O)[C@H](Cc1ccccc1)NC(=O)[C@@H](NC(=O)[C@H](C)NC(=O)[C@H](CC(=O)O)NC(=O)[C@H](CO)NC(=O)[C@@H](N)Cc1c[nH]cn1)C(C)C)[C@@H](C)O)[C@@H](C)O)C(C)C)C(=O)N[C@@H](CCCCN)C(=O)N[C@@H](CC(N)=O)C(=O)N[C@@H](CCCCN)C(=O)N[C@@H](CCCNC(=N)N)C(=O)N[C@@H](Cc1ccc(O)cc1)C(=O)O` [Peptide R3P59], for which the pEC50 at PACAP-R3 is 9.82; at PACAP-R2, 8.00. The “R3 Selectivity” value on PACAP-R3 came out at 70.
On to “HSDAVFTDNYTRLRKQMAAKKYLQSIKNKRY [Peptide R3P69]”, for which, at PACAP-R3, the pEC50 was 9.30 and the “R3 Selectivity” value is reported as 190. The pEC50 on PACAP-R2 is 7.05.
For “H-HSDGIFTDSYSRYRKQMAVKKYLAAVKQGGT-NH2 [Peptide R3P16]”, the pEC50 at PACAP-R3 is 8.00; at PACAP-R2 it was 7.85. Besides, the “R3 Selectivity” value at PACAP-R3 was found to be 1.4.
With “HSDAVFTDNYTKLRKQLAAKKYLNDILNGGT [Peptide R3P11]”, at PACAP-R3, the pEC50 was 8.52 and the “R3 Selectivity” value came to 3. Besides, on PACAP-R2, the pEC50 was 8.00.
For “HSDAVFTDNYTRLRKQMAGKKYLNSIKNRI [rR3P175]”, in that order: 8.66, 180 and 6.40.
For “HSDAVFTDNYTRLRKQMASKKYLNSIQNRI [rR3P188]”, in that order: 8.66, 70 and 6.82.
The matching figures for HSDGIFTDSYSRYRKKMAVKKYLAAVL-NH2 [PAC16]: 9.70, 1 and 9.70.
Regarding “HSDAVFTDNYTRLRKQMASKKYLNSIPNRI [rR3P183]”, the figures for the negative-log EC50 (pEC50) at PACAP-R3 and at PACAP-R2 were 8.27 and less than 6.82, respectively. Further, the “R3 Selectivity” value at PACAP-R3 is more than 30.
For “HSDAVFTDNYTRLRKQMAWKKYLNSIKNKR [Peptide R3P114]”, in that order: 8.70, 7.70 and 10.
For “HSDAVFTDNYTRLRKQLAAKKYLNDIKK [Peptide R3P33]”, in that order: 9.30, less than 7.00 and more than 200.
On to “H-HSDGIFTDSYSEYRKQMAVKKYLAAVL-NH2 [PAC12]”, for which, at PACAP-R3, the pEC50 was 8.52 and the “R3 Selectivity” value came out at 50. Besides, the negative logarithm of the EC50 (pEC50) at PACAP-R2 is 6.82.
Regarding “HSDAVFTDNYTRLRKQMAAKKYLNSIKNMR [Peptide R3P143]”, at PACAP-R3, the pEC50 is 9.70 and the “R3 Selectivity” value is 30. Moreover, on PACAP-R2, the pEC50 is 8.22.
Turning to “HSDAVFTDNYTRLRKQMAAKKYLNSIKNRR [Peptide R3P147]”, on PACAP-R3, the pEC50 is 9.70 and the “R3 Selectivity” value came out at 500. In addition, the negative-log EC50 (pEC50) on PACAP-R2 is 7.00.
For “HSDAVFTDNYTRLRKQMAGKKYLNSIPNRI [rR3P180]”, in that order: 8.17, more than 20 and less than 7.00.
As to “H-HSDAVFTDNYTRLRKQMAVKKYLNSIKN [Peptide R3P42]”, the negative logarithm of the EC50 (pEC50) at PACAP-R3 was 10.52; on PACAP-R2, 9.52. Further, the “R3 Selectivity” value at PACAP-R3 was found to be 10.
For “HSDAVFTDNYTRLRKQMAAKKYLNSIKNKI [Peptide R3P160]”, in that order: 9.70, 7.00 and 500.
For the compound “HSDAVFTDNYTRLRKQMAAKKYLNSIKNIR [Peptide R3P141]”, the pEC50 at PACAP-R3 was 9.70; on PACAP-R2 it was 7.70. For the same compound, on PACAP-R3, the “R3 Selectivity” value is on record as 100.
